The text below walks through data of US8551312B2, “Process to prepare amino acid-N, N-diacetic acid compounds” (Akzo Nobel N.V., priority 2006, dated 2013).

Common to all, as to format: physicochemical
The nature of data set [1]: Corrosiveness against aluminium, weight loss of submerged plates. As to conditions: aluminium plates submerged in c. 40 wt % chelate solution at RT. The protocol: (§1) Commercial Dissolvine® GL-38, Dissolvine® H-40 ex Akzo Nobel Chemicals, and Trilon® M ex BASF were used as reference GLDA-Na4, HEDTA-Na3, and MGDA-Na3, respectively. The partially acidified chelates (40% in water) were prepared by addition of the corresponding chelate acid (in water) to the commercial product until the highest pH was obtained at which less than 0.1 wt % fully neutralized chelate is present. GLDA-H4 was prepared by electrodialysis and MGDA-Nax<3H3−x was made from Trilon® M by ion exchange. The desired pH was derived from the species distribution graphs that are based on the protonation constants. The resulting chelate solutions all have a chelate content (Fe-TSV) between 38.3 and 43 wt % of the salt actually present.
The corrosiveness against aluminium was determined using unspecified aluminium plates. The aluminium plates of 6×3×0.2 cm, supplied by the technical service, were cleaned with ethanol cleaner and dried and the weight of the plates was measured. Subsequently, the plates were completely submerged in the commercial or partially acidified chelate solution and kept at RT. In time, the plates were removed from the solutions, rinsed, dried by technical air, and weighted. The corrosiveness was expressed as the weight loss after a certain period of time. Furthermore, the aluminium plates and the chelate solution were visually inspected to evaluate the corrosion process.

Data set [2] is described as follows: pH of the c. 40 wt % chelate solution by glass electrode. As to conditions: c. 40 wt % chelate solution as such. The protocol:
as §1, with “constants.” for “constants. The resulting chelate solutions all have a chelate content (Fe-TSV) between 38.3 and 43 wt % of the salt actually present.”
The pH of the c. 40 wt % chelate solution as such was determined by a glass electrode.

Data set [3] in a line: Conductivity of c. 40 wt % chelate solution (Knick Konductometer 703). The following applies: c. 40 wt % chelate in water. The protocol:
as §1
The conductivity was measured with a Knick Konductometer 703.

Data set [4] is described as follows: Viscosity (Brookfield DV-II+ pro viscometer, S-18 spindle). The following applies: c. 40 wt % chelate in water. The protocol:
as §1
The viscosity was determined with a Brookfield DV-II+ pro viscometer, using a S-18 spindle. The temperature was maintained with a cryostat.

Consider “tetrasodium glutamic acid-N,N-diacetate [GLDA-Na4]”, for which, in data set [1], the “Corrosiveness Aluminium (% weigth loss after 70 hr)” value was determined as 7 % weigth loss. This compound showed a pH in data set [2] of 13.5. Further, the “Conductivity (mS/cm) at 20° C.” value in data set [3] was 20.9 mS/cm. Moreover, in data set [4], the “Viscosity at 20° C. (Mpas)” value was 51.5 Mpas and the “Viscosity at 40° C. (Mpas)” value is 21.4 Mpas.
In the case of `CC(C(=O)[O-])N(CC(=O)[O-])CC(=O)[O-].[Na+].[Na+].[Na+]` (stereo not drawn) [MGDA-Na3], in data set [1], the “Corrosiveness Aluminium (% weigth loss after 70 hr)” value was determined as 6 % weigth loss. Besides, the pH in data set [2] is on record as 13.5. Moreover, in data set [3], the “Conductivity (mS/cm) at 20° C.” value amounted to 25.8 mS/cm. Besides, in data set [4], the “Viscosity at 20° C. (Mpas)” value is given as 26 Mpas and the “Viscosity at 40° C. (Mpas)” value amounted to 11.0 Mpas.
Consider `O=C([O-])CN(CCO)CCN(CC(=O)[O-])CC(=O)[O-].[Na+].[Na+].[Na+]` [HEDTA-Na3], for which the “Corrosiveness Aluminium (% weigth loss after 70 hr)” value in data set [1] turned out to be 7 % weigth loss. This compound had a pH in data set [2] of 13.4. Also, the “Conductivity (mS/cm) at 20° C.” value in data set [3] came out at 20.29 mS/cm. In addition, in data set [4], the “Viscosity at 20° C. (Mpas)” value is listed as 31 Mpas and the “Viscosity at 40° C. (Mpas)” value stood at 14.7 Mpas.
